GI50 and TGI data for two compounds are collected here from PubChem BioAssay (NCI).

Test systems include RXF 393 renal; TK-10 renal; PC-3 prostate; SNB-19 CNS; OVCAR-3 ovarian; HCT-116 colon; CCRF-CEM leukemia; OVCAR-4 ovarian; MALME-3M melanoma; SF-539 CNS.
What all share (assay): inhibition of tumour cell growth, NCI panel, 48 h

Structures are written as SMILES.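 Briefly, cells in 96-well plates were exposed to five compound concentrations for 48 h, and endpoints were estimated by linear interpolation. The concentration for 50% growth inhibition is given as GI50. TGI marks complete inhibition of growth.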

Regarding `COC1=CC(=O)c2nc(Cl)ccc2C1=O`, the GI50 is 1.58 µM in the test on RXF 393 renal; 2.09 µM in the test on TK-10 renal; 3.73 µM in the test with PC-3 prostate; 13.7 µM in the test with SNB-19 CNS; 1.79 µM with OVCAR-3 ovarian; 1.75 µM in the test with HCT-116 colon. The GI50 in the test with CCRF-CEM leukemia was 2.23 µM; in the test on OVCAR-4 ovarian it was 1.5 µM; in the test with MALME-3M melanoma, 1.72 µM; with SF-539 CNS, 1.62 µM. The TGI worked out at 2.97 µM with RXF 393 renal; 4.23 µM with TK-10 renal; 16.5 µM with PC-3 prostate; 28 µM in the test on SNB-19 CNS; 3.19 µM in the test with OVCAR-3 ovarian; 3.24 µM with HCT-116 colon. For the same compound, the TGI in the test on CCRF-CEM leukemia was over 100 µM; with OVCAR-4 ovarian, 2.83 µM; in the test with MALME-3M melanoma, 3.38 µM; with SF-539 CNS it was 3.03 µM.

Turning to `COc1cc2c(cc1C)NC(=O)/C2=C\c1c[nH]c2ccccc12`, the GI50 was 7.82 µM in the test on RXF 393 renal; 14.1 µM with TK-10 renal; 12.2 µM in the test with PC-3 prostate; 16.4 µM with SNB-19 CNS; 15.4 µM with OVCAR-3 ovarian; 21.1 µM with HCT-116 colon. For the same compound, the GI50 was 10.3 µM in the test on CCRF-CEM leukemia, 12.3 µM with OVCAR-4 ovarian, 15.3 µM with MALME-3M melanoma and 14 µM in the test on SF-539 CNS. The TGI with RXF 393 renal worked out at 47.6 µM; with TK-10 renal it was 46.5 µM; in the test with PC-3 prostate, 31.5 µM; in the test with SNB-19 CNS it was 41.7 µM; with OVCAR-3 ovarian it was 62.9 µM; with HCT-116 colon, 90.1 µM. The TGI with CCRF-CEM leukemia is over 100 µM; in the test with OVCAR-4 ovarian it was 40.5 µM; in the test on MALME-3M melanoma, 42.3 µM; in the test with SF-539 CNS, 31.9 µM.
